“Also recorded” adds a separate entry of the source.
Assays:
[1] = tested on: Hsp70 protein expression in 50B11 cells; experiment: Immunoblot analysis of Hsp70 protein expression; assay type: cell-based; details: 24 hr, 1 μM, FIGS. 3A & 3B
Method: FIGS. 3A & 3B show the induction of Hsp70 protein expression by some of the compounds described herein. […] In the immunoblot analysis, 50B11 cells were treated for 24 hr with 1 μM of the indicated analogs or 250 nM geldanamycin (GDA) as a positive control. […] Results are mean±standard error of the mean (SEM) (n=6). […] The remaining para-substituted and ortho-substituted compounds were similarly effective.
50B11 cells were treated with the indicated compounds for 24 hrs and were scraped into lysis buffer containing 50 mM Tris-HCl, pH 7.4, 150 mM NaCl, 1 mM EDTA, 1% NP-40, 0.5 mM sodium orthovandate, 40 mM NaF, 10 mM β-glycerophosphate, and Complete Protease Inhibitors (Roche Diagnostics). After 15 minutes on ice, the lysates were sonicated then centrifuged at 10,000×g for 10 min at 4° C. The protein concentration of the supernatant was estimated using a Bio-Rad protein assay and bovine serum albumin as the standard. Following SDS-PAGE, the proteins were transferred to nitrocellulose and the membrane incubated with 5% non-fat dry milk in phosphate buffered saline containing 0.1% Tween 20 (PBST) for 1-2 hrs at room temperature. The blots were probed with primary antibodies recognizing Hsp70 or R-actin at 4° C. overnight. The membranes were washed with PBST and subsequently incubated with HRP-conjugated secondary antibodies and immunoreactive proteins were visualized using chemiluminescence detection (GE Healthcare Life Sciences, Little Chalfont, Buckinghamshire, UK). The films were digitally scanned and densitometrically analyzed using ImageJ (NIH) software. Client protein degradation in MCF7 cells was performed as previously described (Urban, et al., 2010).

[2] = tested on: Hsp70 promoter (1.5 kb region upstream of the start codon of the human HSPA1A gene) in 50B11 cells; experiment: Luciferase reporter assay assessing Hsp70 induction; assay type: cell-based; details: for Hsp70 induction (luciferase), Mean: 50B11 cells treated 16 hrs, DMSO (negative control) assigned a value of 100
Method: The luciferase reporter assay was performed using a 1.5 kb region upstream of the start codon of the human HSPA1A gene to drive luciferase expression as previously described. 50B11 cells (Chen, et al., 2007) were grown in 10 cm dishes in maintenance medium and the cells were transfected using lipofectamine. Twenty four hour after transfection, the cells were re-seeded into 24 well plates at a density of 2×10^5 cells per well. After a 6 hrs period to permit attachment, the cells were treated with the indicated compounds for 16 hrs. Luciferase activity was assessed and normalized to the total protein concentration of each well.

[3] = tested on: 50B11 cells; experiment: Mitochondrial bioenergetic assessment (XF96 extracellular flux analyzer, OCR and ECAR); assay type: cell-based; details: 24 hrs, FIG. 4
Method: 50B11 cells were treated for 24 hr with DMSO (1), 10 nM (2,6,10), 100 nM (3,7,11), 500 nM (4,8,12) or 1,000 nM (5,9,13) of compounds 74 (2-5), 75 (6-9) or 59 (10-13). Mitochondrial respiration was measured in the intact cells using an XF96 extracellular flux analyzer that provides concurrent measures of mitochondrial oxygen consumption rate (OCR) and extracellular acidification rate (ECAR) as an indication of glycolytic activity. Results are plotted OCR versus ECAR. The net effect of the drugs on oxidative phosphorylation and glycolysis is indicated in each quadrant. Results are mean±standard error of the mean (SEM) (n=6).
Oxygen consumption rate (OCR) was assessed in the 50B11 transformed sensory neuron cell line, using an XF96 Extracellular Flux Analyzer (Seahorse Biosciences, North Billerica, Mass.). 50B11 cells were seeded into the 96 well plates at 40,000 cells per well and maintained in high glucose DMEM supplemented with 10% fetal bovine serum (Atlas Biologics, Fort Collins Colo.), 5 μg/ml blasticidin and antibiotics at 37° C. The maintenance media was changed to serum free unbuffered DMEM supplemented with 1 mM pyruvate and 5.5 mM D-glucose and the cells incubated at 37° C. in room air for one hour before starting the assay. After introducing the plate into the XF96 analyzer, the basal oxygen consumption rate (OCR) was measured prior to the addition of 1 μg/ml oligomycin to inhibit the ATP synthase to measure the portion of the basal OCR that was coupled to ATP synthesis; residual OCR after oligomycin treatment is from uncoupled respiration (proton leak). […]
After the respiratory measures, the cells were harvested and the protein content of each well determined using a Bradford protein assay. OCR values were normalized to the total protein content of each well and ATP-linked respiration, proton leak, maximal respiratory capacity, spare respiratory capacity and respiratory control ratio were determined as described (Brand and Nicholls, 2011; Chowdhury, et al., 2012)

[4] = molecular target: Hsp90 C-terminus nucleotide binding pocket; details: low affinity; cited from earlier work
[5] = 10 nM to 1,000 nM, FIG. 2, Table 2

Structure (SMILES) | Hsp70 protein expression (immunoblot, in words) [1] | Hsp70 induction (luciferase), Mean ([2]; 10 nM) | Hsp70 induction (luciferase), Mean ([2]; 100 nM) | Hsp70 induction (luciferase), Mean ([2]; 500 nM) | Hsp70 induction (luciferase), Mean ([2]; 1000 nM) | Hsp70 induction in luciferase assay (in words) [2, 5] | also measured
CC(=O)NCCc1ccc(OC2C=CC(OCc3ccc(Cl)cc3)CC2)cc1-c1cccc(F)c1 (centres unmarked) [Compound 74] | equivalent levels of Hsp70 induction | – | – | – | – | – | –
COc1ccccc1COC1CCC(Oc2ccc3cc(NC(C)=O)c(=O)oc3c2C)CC1 (centres unmarked) [Compound 80, N-(7-((4-((2-methoxybenzyl)oxy)cyclohexyl)oxy)-8-methyl-2-oxo-2H-chromen-3-yl)acetamide] | – | 130.87 | 151.51 | 129.16 | 142.77 | – | –
CC(=O)Nc1cc2ccc(OC3CCC(OCc4ccccc4)CC3)c(C)c2oc1=O (centres unmarked) [Compound 77] | – | 146.19 | 106.40 | 102.93 | 100.29 | – | –
CC(=O)Nc1cc2ccc(OC3CCC(OCc4ccc(Cl)cc4)CC3)c(C)c2oc1=O (centres unmarked) [Compound 78] | – | 85.73 | 94.52 | 97.39 | 105.69 | – | –
CC(=O)Nc1cc2ccc(OC3CCC(OCc4ccccc4Br)CC3)c(C)c2oc1=O (centres unmarked) [Compound 79, N-(7-((4-((2-bromobenzyl)oxy)cyclohexyl)oxy)-8-methyl-2-oxo-2H-chromen-3-yl)acetamide] | – | 105.83 | 102.65 | 97.09 | 91.42 | – | –
CC(=O)NCCc1ccc(OC2CCC(OCc3ccc(Cl)cc3)CC2)cc1-c1cccc(F)c1 (centres unmarked) [Compound 59, N-(2-(5-((4-((4-chlorobenzyl)oxy)cyclohexyl)oxy)-3′-fluoro-[1,1′-biphenyl]-2-yl)ethyl)acetamide] | less effective | – | – | – | – | robust induction of luciferase activity | Cellular respiration (in words) [3]: decreased cellular respiration
CC(=O)NCCc1ccc(O)cc1-c1cccc(F)c1 [Compound 20] | – | 88.07 | 87.40 | 93.87 | 96.56 | inactive | –
CC(=O)NCCc1ccc(OC2CCC(OCc3ccccc3)CC2)cc1-c1cccc(F)c1 (centres unmarked) [Compound 44, N-(2-(5-((4-(benzyloxy)cyclohexyl)oxy)-3′-fluoro-[1,1′-biphenyl]-2yl)ethyl)acetamide] | induced Hsp70 protein expression | – | – | – | – | – | Hsp70 induction in luciferase assay (in words) ([2]; 500 nM and 1,000 nM, FIG. 1): highest level of Hsp70 expression
CC(=O)NCCc1ccc(OC2CCC(OCc3ccc(Cl)cc3)[C@@H](O)[C@H]2O)cc1-c1cccc(F)c1 (stereo partly drawn) [Compound 75, N-(2-(5-(((2R,3S)-4-((4-chlorobenzyl)oxy)-2,3-dihydroxycyclohexyl)oxy)-3′-fluoro-[1,1′-biphenyl]-2-yl)ethyl)acetamide] | equivalent levels of Hsp70 induction; also recorded: increased Hsp70 protein expression | – | – | – | – | good induction of Hsp70 | Oxidative phosphorylation and glycolysis (OCR versus ECAR, in words) ([3]; 10 nM to 1,000 nM): more effective at dose dependently increasing oxidative phosphorylation and glycolysis; Cellular respiration (in words) [3]: increased cellular respiration
CO[C@@H]1[C@@H](OC(N)=O)[C@@H](O)[C@H](Oc2ccc3c(O)c(NC(=O)c4ccc(O)c(CC=C(C)C)c4)c(=O)oc3c2C)OC1(C)C [novobiocin] | – | – | – | – | – | – | IC50 [4]: ~700 µM
